The numbers were not newly measured in patent US9877974B2, “Topical formulations comprising a steroid” (Dr. Reddy's Laboratories Ltd., priority 2009, dated 2018), which cites them from elsewhere.

In the case of `CCC(=O)OCC(=O)[C@@]1(OC(=O)CC)[C@@H](C)C[C@H]2[C@@H]3CCC4=CC(=O)C=C[C@]4(C)[C@@]3(F)[C@@H](O)C[C@@]21C` [Betamethasone dipropionate, 9-fluoro-11(β),17,21-trihydroxy-16(β)-methylpregna-1,4-diene-3,20-dione 17,21-dipropionate], under “acetone”, the Solubility in acetone entry is “freely soluble”. The Solubility in chloroform entry (chloroform) was “freely soluble”. The Solubility in ethanol entry (ethanol) was “sparingly soluble”. Further, the Solubility in water result (water) is “practically insoluble”.
